According to patent US4803266A, “3-Oxoalkylidene-2-azetidinone derivatives” (Taisho Pharmaceutical Co., Ltd., priority 1986, dated 1989):

Experiments:
[1] = tested on: blood platelet aggregation; experiment: Blood platelet aggregation inhibition in vitro in rabbit PRP, collagen induced; format: cell-based, male, New Zealand strain house rabbit; conditions: Oryctolagus cuniculus, collagen final concentration 5 μg/ml, 37° C., 3 minutes preincubation, 50% inhibition of maximum aggregation rate
Method: (§1) Citrated blood (one volume of 3.2% sodium citrate; 9 volumes of blood) was collected from carotid artery of male, New Zealand strain house rabbit, centrifuged at 150 g for 15 minutes to give platelet rich plasma (PRP) as a supernatant, and the remaining blood was centrifuged at 1500 g for 10 minutes to give platelet poor plasma (PPP) as a supernatant. The platelet count of PRP was adjusted to 50-60×10^4 /μl by dilution of PPP. Blood platelet aggregation was carried out according to the method of Born [Born, G. V. R., Nature, 194, 927 (1962)]. Namely, 25 μl of the test drug, (all the test drugs were dissolved in dimethyl sulfoxide and adjusted to the desired concentration with physiological saline solution), was added to 250 μl of PRP, and the mixture was incubated at 37° C. for 3 minutes. 25 μl of the aggregation inducing substance [adenosine diphosphate (ADP); final concentration 5 μM or collagen: final concentration 5 μg/ml] was added, the mixture was measured for 5 minutes by blood platelet aggregation ability measurement apparatus (Aggricoda TM-PA-3210, Kyoto Dai-ichi Kagaku) to obtain the maximum aggregation rate, and there was calculated the concentration of the test drug (ICP50) which brings about 50% inhibition to the maximum aggregation rate obtained by adding the aggregation inducing substance to PRP containing the solvent only.
(§2) The compound numbers in Table 1 correspond to those in the Examples described below.

[2] = tested on: blood platelet aggregation; experiment: Blood platelet aggregation inhibition in vitro in rabbit PRP, ADP induced; format: cell-based, male, New Zealand strain house rabbit; conditions: Oryctolagus cuniculus, ADP final concentration 5 μM, 37° C., 3 minutes preincubation, 50% inhibition of maximum aggregation rate
Method: as §1, §2

Compound	IC50 [1]	IC50 [2]
CC(=O)/C=C1/C(=O)N(c2ccccc2)C1c1ccccc1 (stereo not drawn) [Compound 1, (E)-3-(2-oxopropylidene)-1,4-diphenyl-2-azetidinone]	14 µM	33 µM
COc1ccc(C(=O)/C=C2/C(=O)N(c3ccccc3C)C2c2ccccc2)cc1 (stereo not drawn) [Compound 16]	4.1 µM	12.5 µM
O=C(/C=C1/C(=O)N(Cc2ccccc2C(F)(F)F)C1c1ccccc1)c1ccc([N+](=O)[O-])cc1 (stereo not drawn) [Compound 95]	2.5 µM	15.4 µM
Cc1ccccc1N1C(=O)/C(=C/C(=O)c2ccc([N+](=O)[O-])cc2)C1c1ccc(F)cc1 (stereo not drawn) [Compound 79]	5.1 µM	4.3 µM
O=C(/C=C1/C(=O)N(c2cc(Cl)cc(Cl)c2)C1c1ccccc1)c1ccc(F)cc1 (stereo not drawn) [Compound 37]	17.8 µM	21.2 µM
COc1ccc(Cc2nccc3cc(OC)c(OC)cc23)cc1OC [papaverin, reference compound]	> 100 µM	> 100 µM
O=C(/C=C1/C(=O)N(c2ccc(F)cc2)C1c1ccccc1)c1ccc([N+](=O)[O-])cc1 (stereo not drawn) [Compound 32]	3.8 µM	3.5 µM
O=C(/C=C1/C(=O)N(Cc2ccccc2F)C1c1ccccc1)c1ccc([N+](=O)[O-])cc1 (stereo not drawn) [Compound 96]	3.7 µM	3.9 µM
O=C(/C=C1/C(=O)N(Cc2ccc(Cl)cc2)C1c1ccccc1)c1ccc([N+](=O)[O-])cc1 (stereo not drawn) [Compound 98]	8.8 µM	11.2 µM
Cc1cc(Cl)ccc1N1C(=O)/C(=C/C(=O)c2ccc([N+](=O)[O-])cc2)C1c1ccccc1 (stereo not drawn) [Compound 24]		6.4 µM
O=C(/C=C1/C(=O)N(Cc2ccccc2)C1c1ccccc1)c1ccc(F)cc1 (stereo not drawn) [Compound 52]		7.9 µM
COc1ccc(C(=O)/C=C2/C(=O)N(c3ccc(Cl)cc3C)C2c2ccccc2)cc1 (stereo not drawn) [Compound 22]		41.3 µM
O=C(/C=C1/C(=O)N(c2ccccc2)C1c1ccc(O)cc1)c1ccc([N+](=O)[O-])cc1 (stereo not drawn) [Compound 75]	5.4 µM	3.8 µM
O=C(/C=C1/C(=O)N(c2ccc(Br)cc2)C1c1ccccc1)c1ccc(F)cc1 (stereo not drawn) [Compound 40]	13.2 µM	11.3 µM
O=C(/C=C1/C(=O)N(c2cccc(C(F)(F)F)c2)C1c1ccccc1)c1ccc(F)cc1 (stereo not drawn) [Compound 44]	7.3 µM	10.3 µM
O=C(/C=C1/C(=O)N(c2ccccc2)C1c1ccccc1)c1ccc(Cl)cc1 (stereo not drawn) [Compound 9]	12 µM	15 µM
CCc1ccc(C2/C(=C\C(=O)c3ccc(F)cc3)C(=O)N2c2ccccc2C)cc1 (stereo not drawn) [Compound 67]	11 µM	27.7 µM
COc1ccccc1CN1C(=O)/C(=C/C(=O)c2ccc([N+](=O)[O-])cc2)C1c1ccccc1 (stereo not drawn) [Compound 94]	6.9 µM	8 µM
O=C(/C=C1/C(=O)N(c2cc(Cl)cc(Cl)c2)C1c1ccccc1)c1ccc([N+](=O)[O-])cc1 (stereo not drawn) [Compound 38]	4.6 µM	9 µM
Cc1ccc(CN2C(=O)/C(=C/C(=O)c3ccc([N+](=O)[O-])cc3)C2c2ccccc2)cc1 (stereo not drawn) [Compound 91]	6.7 µM	9.7 µM

Compound	IC50 [1]	IC50 [2]
O=C(/C=C1/C(=O)N(Cc2ccccc2Cl)C1c1ccccc1)c1ccc([N+](=O)[O-])cc1 (stereo not drawn) [Compound 56]	6.5 µM	2.9 µM
Cc1ccc(Cl)cc1N1C(=O)/C(=C/C(=O)c2ccccc2)C1c1ccccc1 (stereo not drawn) [Compound 26]	9.5 µM	16.5 µM
O=C(/C=C1/C(=O)N(c2ccccc2)C1c1ccccc1F)c1ccc([N+](=O)[O-])cc1 (stereo not drawn) [Compound 81]	7 µM	5.5 µM
O=C(/C=C1/C(=O)N(c2ccccc2)C1c1ccccc1F)c1ccc(F)cc1 (stereo not drawn) [Compound 80]	10.9 µM	7.4 µM
O=C(/C=C1/C(=O)N(c2ccccc2)C1c1ccccc1)c1ccc(F)cc1 (stereo not drawn) [Compound 8]	13.6 µM	9.2 µM
O=C(/C=C1/C(=O)N(Cc2ccccc2Cl)C1c1ccccc1)c1ccc(F)cc1 (stereo not drawn) [Compound 55]	8.3 µM	10.5 µM
Cc1ccccc1N1C(=O)/C(=C/C(=O)c2ccc(F)cc2)C1c1ccc(F)cc1 (stereo not drawn) [Compound 78]	8.3 µM	6.2 µM
O=C(/C=C1/C(=O)N(c2ccccc2)C1c1ccccc1)c1ccc([N+](=O)[O-])cc1 (stereo not drawn) [Compound 12]	4.7 µM	5.6 µM
O=C(/C=C1/C(=O)N(c2ccccc2)C1c1ccccc1)c1ccc(Br)cc1 (stereo not drawn) [Compound 10]	26 µM	36 µM
O=C(/C=C1/C(=O)N(Cc2ccc(Cl)cc2Cl)C1c1ccccc1)c1ccc([N+](=O)[O-])cc1 (stereo not drawn) [Compound 103]	6.7 µM	18.5 µM
O=C(/C=C1/C(=O)N(c2ccccc2)C1c1ccccc1)c1ccc(-c2ccccc2)cc1 (stereo not drawn) [Compound 11]	22 µM	> 30 µM
COc1ccc(CN2C(=O)/C(=C/C(=O)c3ccc([N+](=O)[O-])cc3)C2c2ccccc2)cc1 (stereo not drawn) [Compound 92]	6.5 µM	7.3 µM
O=C(/C=C1/C(=O)N(c2ccccc2)C1c1ccc(F)cc1)c1ccc([N+](=O)[O-])cc1 (stereo not drawn) [Compound 77]	2.9 µM	4.3 µM
Cc1ccccc1N1C(=O)/C(=C/C(=O)c2ccc(F)cc2)C1c1ccccc1 (stereo not drawn) [Compound 17]	5 µM	7.7 µM
O=C(/C=C1/C(=O)N(c2ccc(F)cc2)C1c1ccccc1)c1ccccc1 (stereo not drawn) [Compound 29]	8.1 µM	9 µM
COc1ccc(C(=O)/C=C2/C(=O)N(c3ccccc3)C2c2ccccc2)cc1 (stereo not drawn) [Compound 6]	18 µM	24 µM
O=C(/C=C1/C(=O)N(c2cccc(C(F)(F)F)c2)C1c1ccccc1)c1ccc([N+](=O)[O-])cc1 (stereo not drawn) [Compound 45]	5.2 µM	4.4 µM
COc1ccc(C(=O)/C=C2/C(=O)N(c3ccc(Br)cc3)C2c2ccccc2)cc1 (stereo not drawn) [Compound 39]	> 30 µM	> 30 µM
O=C(/C=C1/C(=O)N(Cc2ccc(F)cc2)C1c1ccccc1)c1ccc([N+](=O)[O-])cc1 (stereo not drawn) [Compound 93]	8.7 µM	18.3 µM
COc1ccc(C(=O)/C=C2/C(=O)N(c3ccccc3)C2c2ccccc2)c(OC)c1 (stereo not drawn) [Compound 7]	23 µM	12 µM

Compound	IC50 [1]	IC50 [2]
CC(=O)/C=C1/C(=O)N(Cc2ccccc2Cl)C1c1ccccc1 (stereo not drawn) [Compound 54]	15.5 µM	11.2 µM
O=C(/C=C1/C(=O)N(Cc2cccc(Cl)c2)C1c1ccccc1)c1ccc([N+](=O)[O-])cc1 (stereo not drawn) [Compound 97]	3.2 µM	16 µM
CCC(=O)/C=C1/C(=O)N(c2ccccc2)C1c1ccccc1 (stereo not drawn) [Compound 2]	32 µM	28 µM
O=C(/C=C1/C(=O)N(c2ccccc2F)C1c1ccccc1)c1ccc(F)cc1 (stereo not drawn) [Compound 33]	12.5 µM	11.9 µM
CCc1ccc(C2/C(=C\C(=O)c3ccc([N+](=O)[O-])cc3)C(=O)N2c2ccccc2C)cc1 (stereo not drawn) [Compound 68]	7.5 µM	13.6 µM
O=C(/C=C1/C(=O)N(c2ccc(Br)cc2)C1c1ccccc1)c1ccc([N+](=O)[O-])cc1 (stereo not drawn) [Compound 41]	5.1 µM	4.2 µM
Cc1ccccc1N1C(=O)/C(=C/C(=O)c2ccc(F)cc2)C1c1ccc(Br)cc1 (stereo not drawn) [Compound 85]	14.4 µM	17.7 µM
Cc1ccccc1N1C(=O)/C(=C/C(=O)c2ccc([N+](=O)[O-])cc2)C1c1ccccc1 (stereo not drawn) [Compound 18]	3.2 µM	6.6 µM
CCOC(=O)CC(=O)/C=C1/C(=O)N(c2ccccc2)C1c1ccccc1 (stereo not drawn) [Compound 15]	16.6 µM	21.5 µM
Cc1ccc(C(=O)/C=C2/C(=O)N(c3ccccc3)C2c2ccccc2)cc1 (stereo not drawn) [Compound 5]	23.5 µM	24 µM
Cc1ccc(C(=O)/C=C2/C(=O)N(c3ccc(Cl)cc3C)C2c2ccccc2)cc1 (stereo not drawn) [Compound 21]		30.9 µM
O=C(/C=C1/C(=O)N(c2ccccc2)C1c1ccccc1)c1ccccc1 (stereo not drawn) [Compound 4]	16 µM	13 µM
Cc1ccccc1N1C(=O)/C(=C/C(=O)c2ccc([N+](=O)[O-])cc2)C1c1ccc(Br)cc1 (stereo not drawn) [Compound 86]	5.3 µM	6.2 µM
CC(=O)/C=C1/C(=O)N(c2cc(Cl)ccc2C)C1c1ccccc1 (stereo not drawn) [Compound 25]	6.6 µM	11.1 µM
O=C(/C=C1/C(=O)N(Cc2ccccc2)C1c1ccccc1)c1ccc([N+](=O)[O-])cc1 (stereo not drawn) [Compound 53]		4.9 µM
O=C(/C=C1/C(=O)N(c2cccc(C(F)(F)F)c2)C1c1ccccc1)c1ccccc1 (stereo not drawn) [Compound 43]	7.7 µM	14 µM
O=C(/C=C1/C(=O)N(c2ccccc2)C1c1ccc(F)cc1)c1ccc(F)cc1 (stereo not drawn) [Compound 76]	10.5 µM	14.3 µM
O=C(/C=C1/C(=O)N(c2ccccc2F)C1c1ccccc1)c1ccc([N+](=O)[O-])cc1 (stereo not drawn) [Compound 34]	6.6 µM	8.2 µM
